# Test results published in PMC10952897, “The Role of Cytochrome P450 AbyV in the Final Stages of Abyssomicin C Biosynthesis” (Angewandte Chemie (Weinheim an Der Bergstrasse, Germany), 2022).
# Molecular target: T1, AbyV (Micromonospora maris, UniProt F4F6Q5)
# T1 construct: N-terminal His6 tag (pOPINF::abyV), E. coli BL21(DE3)
# Assay: titration of substrate into buffered AbyV solution
# Type: binding
# T1 sequence (F4F6Q5 entry or part of it): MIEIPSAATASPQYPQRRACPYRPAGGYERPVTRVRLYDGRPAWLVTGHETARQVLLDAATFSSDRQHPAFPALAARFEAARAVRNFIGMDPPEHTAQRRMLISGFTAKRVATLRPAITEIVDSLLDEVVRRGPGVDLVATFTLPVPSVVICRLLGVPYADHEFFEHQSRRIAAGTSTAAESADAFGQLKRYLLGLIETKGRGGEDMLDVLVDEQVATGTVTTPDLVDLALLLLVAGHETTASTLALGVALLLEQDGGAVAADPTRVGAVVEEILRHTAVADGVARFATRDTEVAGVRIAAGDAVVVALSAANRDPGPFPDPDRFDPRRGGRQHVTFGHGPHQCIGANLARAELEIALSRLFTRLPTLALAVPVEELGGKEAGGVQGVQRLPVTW
compound,measurement,value
"C[C@@H]1C[C@H](C)C(=O)/C=C/[C@@H]2C=C[C@H](C)C[C@@]23OC(=O)C(=C3O)C1=O (mixture of isomers) [compound 3, spirotetronate 3]",Kd,34 ± 7 µM
